Results taken from patent publication US20080175800A1, “USE OF SPECIFIC MENTHYL 3-OXOCARBOXYLIC ACID ESTERS AS PHYSIOLOGICALLY ACTIVE COOLING SUBSTANCES” (SYMRISE GmbH & Co. KG, priority 2007, published 2008).

Experiments:
[1] = Sensory evaluation in confectioner's fondant by a panel of experts (cooling action); format: in vivo; settings: 0.05 wt. % in confectioner's fondant; for cooling action: scale from 1 (no cooling action) to 9 (extremely strong cooling action)
Protocol: The compounds from Examples 1 and 2 were tested for their sensory properties, in particular their cooling action. To this end, they were dissolved, in each case in a specific final concentration, in a mass prepared from sucrose (saccharose) and water (confectioner's fondant, supplier Nordzucker AG, Nordstemmen) and evaluated by a panel of experts. Sensory impressions were rated and the cooling action was assessed on a scale from 1 (no cooling action) to 9 (extremely strong cooling action).

[2] = Skin-cooling characteristics, application site forearm; format: in vivo; settings: forearm of human test subjects; compared with L-menthyl lactate (Frescolat ML)

CC(=O)CC(=O)O[C@@H]1C[C@H](C)CC[C@H]1C(C)C [Example 1, (L)-menthyl 3-oxo-butyrate]
cooling action [1]: 5-6
skin intensity of cooling [2]: overall weaker intensity of cooling

CCC(=O)CC(=O)O[C@@H]1C[C@H](C)CC[C@H]1C(C)C [Example 2, (L)-menthyl 3-oxo-pentanoate]
onset and duration of cooling action ([1]; compared with Example 1): slower onset but longer lasting than Example 1
cooling action [1]: 5-6
skin intensity of cooling [2]: overall weaker intensity of cooling
